In assay [1] the target is BTK (phospho-BTK) in human whole blood (Homo sapiens, UniProt Q06187). Nature of the assay: In vitro PD assay in human whole blood (pBTK assay).
For another assay, the target named is T1, BTK enzyme (Homo sapiens, UniProt Q06187).
T1 construct: purchased Upstate 14-552
Nature of the assay: In vitro BTK kinase assay: BTK-POLYGAT-LS assay. Conditions: ATP 10 μM, read-out: IC50 (10uMATP). It counts as biochemical. Summed up:
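Human BTK activity was measured with final 10 μM ATP and 100 nM polyGAT substrate in pH 7.5 Tris buffer with 10 mM MgCl2, DTT, Triton X-100 and casein.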

Where two headings read alike, the source gives them in different places.

Chain of BTK (phospho-BTK) in human whole blood (Q06187 whole entry): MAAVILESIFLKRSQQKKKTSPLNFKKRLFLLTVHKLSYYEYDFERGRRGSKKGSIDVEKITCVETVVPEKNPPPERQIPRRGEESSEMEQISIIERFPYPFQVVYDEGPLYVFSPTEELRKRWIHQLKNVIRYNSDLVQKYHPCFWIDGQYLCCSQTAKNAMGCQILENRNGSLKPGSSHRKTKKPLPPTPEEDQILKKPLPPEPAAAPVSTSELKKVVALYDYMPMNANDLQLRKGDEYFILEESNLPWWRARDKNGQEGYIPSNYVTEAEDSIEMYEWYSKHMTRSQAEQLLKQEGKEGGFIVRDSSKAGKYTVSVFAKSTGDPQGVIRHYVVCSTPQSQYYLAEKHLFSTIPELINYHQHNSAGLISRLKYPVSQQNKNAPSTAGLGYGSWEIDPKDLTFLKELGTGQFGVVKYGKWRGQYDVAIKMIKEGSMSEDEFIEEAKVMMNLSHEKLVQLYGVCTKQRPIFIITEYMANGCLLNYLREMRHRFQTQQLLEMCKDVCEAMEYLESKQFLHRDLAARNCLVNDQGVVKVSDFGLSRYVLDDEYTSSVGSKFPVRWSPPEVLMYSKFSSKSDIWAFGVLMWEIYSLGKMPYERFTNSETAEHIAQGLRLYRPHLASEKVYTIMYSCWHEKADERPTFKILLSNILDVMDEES
T1 sequence (Q06187 whole entry): as above

For the compound `Cc1cc(-c2cc(Nc3cc4n(n3)CCOC4)ncn2)ccc1CNC(=O)N1CC(OC(C)(C)C)C1` [Example I-287, 3-tert-butoxy-N-[[4-[6-(6,7-dihydro-4H-pyrazolo[5,1-c][1,4]oxazin-2-ylamino)pyrimidin-4-yl]-2-methyl-phenyl]methyl]azetidine-1-carboxamide], the IC50 was less than 500 nM in assay [1] and less than 10 nM on BTK enzyme.

`Cn1cc(Nc2nccc(-c3ccc(CNC(=O)N4CC(OC(C)(C)C)C4)c(C(F)(F)F)c3)n2)cn1` [Example I-198, 3-(tert-butoxy)-N-(4-(2-((1-methyl-1H-pyrazol-4-yl)amino)pyrimidin-4-yl)-2-(trifluoromethyl)benzyl)azetidine-1-carboxamide]: the figures for the IC50 (in assay [1]; on BTK enzyme) were less than 500 nM and less than 10 nM, respectively.

On to `CC(C)C1CCN(C(=O)NC2CCCCc3cc(-c4ccnc(Nc5cnn(C6CCOCC6)c5)n4)ccc32)C1` (centres unmarked) [Example I-342, 3-isopropyl-N-[2-[2-[(1-tetrahydropyran-4-ylpyrazol-4-yl)amino]pyrimidin-4-yl]-6,7,8,9-tetrahydro-5H-benzo[7]annulen-5-yl]pyrrolidine-1-carboxamide], for which the IC50 in assay [1] is less than 500 nM; on BTK enzyme, less than 10 nM.

Turning to `Cc1cc(-c2cc(Nc3ccn(C4CCN(C)CC4)n3)ncn2)ccc1CNC(=O)c1cnc(C(C)(C)C)s1` [Example I-358, 2-tert-butyl-N-[[2-methyl-4-[6-[[1-(1-methyl-4-piperidyl)pyrazol-3-yl]amino]pyrimidin-4-yl]phenyl]methyl]thiazole-5-carboxamide], the IC50 is less than 500 nM in assay [1] and less than 10 nM on BTK enzyme.

For the compound `Cn1cc(Nc2nccc(-c3ccc4c(c3)NCCC4NC(=O)c3cnc(C(C)(C)C)s3)n2)cn1` (centres unmarked) [Example I-99, 2-(tert-butyl)-N-(7-(2-((1-methyl-1H-pyrazol-4-yl)amino)pyrimidin-4-yl)-1,2,3,4-tetrahydroquinolin-4-yl)thiazole-5-carboxamide], the IC50 in assay [1] was 1500 to 10000 nM; on BTK enzyme it was less than 10 nM.

As for `CC(C)n1cc(Nc2nccc(-c3ccc4c(c3)CCCCC4NC(=O)N3CC(OC(C)(C)C)C3)n2)cn1` (centres unmarked) [Example I-174, 3-(tert-butoxy)-N-(2-(2-((1-isopropyl-1H-pyrazol-4-yl)amino)pyrimidin-4-yl)-6,7,8,9-tetrahydro-5H-benzo[7]annulen-5-yl)azetidine-1-carboxamide], the concentration for half-maximal inhibition (IC50) in assay [1] is less than 500 nM; at BTK enzyme, less than 10 nM.

As for `Cc1cc(-c2ccnc(Nc3cnn4c3CCC4)n2)ccc1CNC(=O)N1CC(OC(C)(C)C)C1` [Example I-322, 3-tert-butoxy-N-[[4-[2-(5,6-dihydro-4H-pyrrolo[1,2-b]pyrazol-3-ylamino)pyrimidin-4-yl]-2-methyl-phenyl]methyl]azetidine-1-carboxamide], the IC50 is less than 500 nM in assay [1] and less than 10 nM at BTK enzyme.

Take `Cc1cc(-c2cc(Nc3cc4n(n3)CCN(C)C4)ncn2)ccc1CNC(=O)c1cc(C(C)(C)C)on1` [Example I-265, 5-tert-butyl-N-[[2-methyl-4-[6-[(5-methyl-6,7-dihydro-4H-pyrazolo[1,5-a]pyrazin-2-yl)amino]pyrimidin-4-yl]phenyl]methyl]isoxazole-3-carboxamide]: the IC50 in assay [1] is less than 500 nM; on BTK enzyme, less than 10 nM.

In the case of `COCCn1cc(Nc2nccc(-c3ccc(CNC(=O)N4CC(OC(C)C)C4)c(C)c3)n2)cn1` [Example I-213, 3-isopropoxy-N-(4-(2-((1-(2-methoxyethyl)-1H-pyrazol-4-yl)amino)pyrimidin-4-yl)-2-methylbenzyl)azetidine-1-carboxamide], the IC50 in assay [1] was less than 500 nM; on BTK enzyme, less than 10 nM.

For `Cc1cc(-c2cc(Nc3ccc(N4CCN(C)CC4)cn3)ncn2)ccc1CNC(=O)c1cnc(C(C)(C)C)s1` [Example I-69, 2-(tert-butyl)-N-(2-methyl-4-(6-((5-(4-methylpiperazin-1-yl)pyridin-2-yl)amino)pyrimidin-4-yl)benzyl)thiazole-5-carboxamide], the IC50 was less than 500 nM in assay [1] and less than 10 nM at BTK enzyme.

As for `CC(C)(C)OC1CN(C(=O)NC2CCCCc3cc(-c4cc(Nc5cc6n(n5)CCOC6)ncn4)ccc32)C1` (centres unmarked) [Example I-332, 3-tert-butoxy-N-[2-[6-(6,7-dihydro-4H-pyrazolo[5,1-c][1,4]oxazin-2-ylamino)pyrimidin-4-yl]-6,7,8,9-tetrahydro-5H-benzo[7]annulen-5-yl]azetidine-1-carboxamide], the IC50 in assay [1] was less than 500 nM; on BTK enzyme, less than 10 nM.

For `CC(C)OC1CN(C(=O)NC2CCCCc3cc(-c4ccnc(Nc5cnn(C(C)C)c5)n4)ccc32)C1` (centres unmarked) [Example I-167, 3-isopropoxy-N-(2-(2-((1-isopropyl-1H-pyrazol-4-yl)amino)pyrimidin-4-yl)-6,7,8,9-tetrahydro-5H-benzo[7]annulen-5-yl)azetidine-1-carboxamide], the IC50 in assay [1] is less than 500 nM; at BTK enzyme it was less than 10 nM.

For the compound `Cc1cc(-c2ccnc(Nc3cnn(C4CCN(C)CC4)c3)n2)ccc1CNC(=O)c1cc(C(C)(C)C)on1` [Example I-196, 5-(tert-butyl)-N-(2-methyl-4-(2-((1-(1-methylpiperidin-4-yl)-1H-pyrazol-4-yl)amino)pyrimidin-4-yl)benzyl)isoxazole-3-carboxamide], the IC50 is less than 500 nM in assay [1] and less than 10 nM on BTK enzyme.

`CN1CC(n2cc(Nc3nccc(-c4ccc(CNC(=O)c5cc(C(C)(C)C)on5)c(Cl)c4)n3)cn2)C1` [Example I-354, 5-tert-butyl-N-[[2-chloro-4-[2-[[1-(1-methylazetidin-3-yl)pyrazol-4-yl]amino]pyrimidin-4-yl]phenyl]methyl]isoxazole-3-carboxamide]: the values for the IC50 (in assay [1]; at BTK enzyme) were less than 500 nM and less than 10 nM, respectively.

With `Cc1cc(-c2ccnc(Nc3cnn(C[C@@H]4CNCCO4)c3)n2)ccc1CNC(=O)c1cnc(C(C)(C)C)s1` [Example I-126, (S)-2-(tert-butyl)-N-(2-methyl-4-(2-((1-(morpholin-2-ylmethyl)-1H-pyrazol-4-yl)amino)pyrimidin-4-yl)benzyl)thiazole-5-carboxamide], the IC50 in assay [1] is less than 500 nM; at BTK enzyme it was less than 10 nM.

Turning to `Cc1cc(-c2ccnc(Nc3cnn([C@@H]4CCNC[C@H]4F)c3)n2)ccc1CNC(=O)N1CC(OC(C)C)C1` (relative stereo) [Example I-220], the IC50 in assay [1] (read-out: pBTK IC50, human whole blood, 37° C. for 30 min) is less than 500 nM; at BTK enzyme, less than 10 nM.

`COCCn1cc(Nc2nccc(-c3ccc(CNC(=O)N4CCC(C(C)(C)C)C4)c(C)c3)n2)cn1` (centres unmarked) [Example I-303, 3-tert-butyl-N-[[4-[2-[[1-(2-methoxyethyl)pyrazol-4-yl]amino]pyrimidin-4-yl]-2-methyl-phenyl]methyl]pyrrolidine-1-carboxamide]: the IC50 in assay [1] is less than 500 nM; on BTK enzyme it was less than 10 nM.

Regarding `CC(C)(C)OC1CN(C(=O)NCc2ccc(-c3ccnc(Nc4cnn(C5CC5)c4)n3)cc2C(F)(F)F)C1` [Example I-294, 3-tert-butoxy-N-[[4-[2-[(1-cyclopropylpyrazol-4-yl)amino]pyrimidin-4-yl]-2-(trifluoromethyl)phenyl]methyl]azetidine-1-carboxamide], the results for the IC50 (in assay [1]; at BTK enzyme) were less than 500 nM and less than 10 nM, respectively.

On to `Cc1cc(-c2ccnc(Nc3cnn(C)c3)n2)ccc1CNC(=O)N1CCOC(C(C)C)C1` (centres unmarked) [Example I-24, 2-isopropyl-N-(2-methyl-4-(2-((1-methyl-1H-pyrazol-4-yl)amino)pyrimidin-4-yl)benzyl)morpholine-4-carboxamide], for which the IC50 in assay [1] lay in the range of 1500 to 10000 nM; at BTK enzyme, 10 to 99 nM.

As for `Cc1cc(-c2ccnc(Nc3cnn(C)c3)n2)ccc1CNC(=O)c1ccc(C(C)(C)C)cc1` [Example I-7, 4-(tert-butyl)-N-(2-methyl-4-(2-((1-methyl-1H-pyrazol-4-yl)amino)pyrimidin-4-yl)benzyl)benzamide], the values for the IC50 (in assay [1]; on BTK enzyme) were 500 to 1500 nM and less than 10 nM, respectively.

In the case of `Cc1cc(-c2ccnc(Nc3cnn(CCO)c3)n2)ccc1CNC(=O)c1cnn(C(C)(C)C)c1` [Example I-250, 1-tert-butyl-N-[[4-[2-[[1-(2-hydroxyethyl)pyrazol-4-yl]amino]pyrimidin-4-yl]-2-methyl-phenyl]methyl]pyrazole-4-carboxamide], the IC50 in assay [1] was less than 500 nM; on BTK enzyme, less than 10 nM.

On to `CC(C)OC1CN(C(=O)NC2CCCCc3cc(-c4ccnc(Nc5cnn(C6CCN(C)CC6F)c5)n4)ccc32)C1` (centres unmarked) [Example I-348, N-[2-[2-[[1-(3-fluoro-1-methyl-4-piperidyl)pyrazol-4-yl]amino]pyrimidin-4-yl]-6,7,8,9-tetrahydro-5H-benzo[7]annulen-5-yl]-3-isopropoxy-azetidine-1-carboxamide], for which the half-inhibitory concentration (IC50) in assay [1] was less than 500 nM; on BTK enzyme it was less than 10 nM.

Regarding `Cc1cc(-c2cc(Nc3cc4n(n3)CCN(C)C4)ncn2)ccc1CNC(=O)c1cnc(C(C)(C)C)s1` [Example I-63, 2-(tert-butyl)-N-(2-methyl-4-(6-((5-methyl-4,5,6,7-tetrahydropyrazolo[1,5-a]pyrazin-2-yl)amino)pyrimidin-4-yl)benzyl)thiazole-5-carboxamide], the figures for the IC50 (in assay [1]; on BTK enzyme) were less than 500 nM and less than 10 nM, respectively.

Take `Cc1cc(-c2ccnc(Nc3cnn(CCN)c3)n2)ccc1CNC(=O)c1cnc(C(C)(C)C)s1` [Example I-50, N-(4-(2-((1-(2-aminoethyl)-1H-pyrazol-4-yl)amino)pyrimidin-4-yl)-2-methylbenzyl)-2-(tert-butyl)thiazole-5-carboxamide]: the IC50 in assay [1] is less than 500 nM; on BTK enzyme, less than 10 nM.

On to `Cc1cc(-c2ccnc(Nc3cnn(C)c3)n2)ccc1CNC(=O)c1cnc(C(F)(F)F)s1` [Example I-4, N-(2-methyl-4-(2-((1-methyl-1H-pyrazol-4-yl)amino)pyrimidin-4-yl)benzyl)-2-(trifluoromethyl)thiazole-5-carboxamide], for which the IC50 was 1500 to 10000 nM in assay [1] and less than 10 nM on BTK enzyme.

One may read the IC50 as the point on the concentration scale where inhibition reaches its midpoint.

These data come from patent publication US10759783B2, “Biaryl inhibitors of Bruton'S tyrosine kinase” (BIOGEN MA INC., priority 2013, dated 2020).
